Assays:
[1] = test system: human stomach cancer cell line NCI-N87; assay: Combination of Compound 1 and capecitabine (in vivo), subcutaneous tumor in nude mice; parameters: species or system nude mouse (BALB/cAJcl-nu/nu); conditions: for T/C (%): Day 15
Method: A human stomach cancer cell line NCI-N87 was obtained from American Type Culture Collection (ATCC). The cell line was cultured at 37° C. in a 5% CO2 incubator using RPMI-1640 (containing 4.5 g/L glucose, 10 mM HEPES, and 1 mM sodium pyruvate) (Wako Pure Chemical Industries, Ltd.) medium containing 10% fetal bovine serum (FBS).
The NCI-N87 cells were resuspended at a concentration of 8×10^7 cells/mL in PBS.
The cell suspension was subcutaneously transplanted in an amount of 8×10^6 cells/0.1 mL to the right chest of a 6-week-old nude mouse (BALB/cAJcl-nu/nu, CLEA Japan, Inc.) using a 1 mL syringe for tuberculin and a 25 G injection needle.
Electronic calipers were used in tumor size measurement.

[2] = test system: HER2-overexpressing human stomach cancer cell line NCI-N87 cells; assay: Cytostatic activity against HER2-expressing cell line (NCI-N87), CellTiter-Glo; format: cell-based; conditions: 3-day culture; read-out: NCI-N87 cell growth inhibitory activity IC50 value
Description: (§1) HER2-overexpressing human stomach cancer cell line NCI-N87 cells were suspended in RPMI1640 medium (manufactured by Life Technologies Corp.) containing 10% fetal bovine serum. Meanwhile, EGFR-overexpressing highly activated human epithelioid cancer cell line A431 cells were suspended in DMEM, high glucose medium (manufactured by Life Technologies Corp.) containing 10% fetal bovine serum. Subsequently, each cell suspension was inoculated to each well of a 384-well flat-bottom microplate and cultured at 37° C. for 1 day in an incubator containing 5% carbon dioxide. The synthesis example compound was dissolved in DMSO, and the test compound was diluted into a concentration of 500 times the final concentration using DMSO. The solution of the test compound in DMSO was diluted with the medium used in the suspension of each cell line, and this solution was added at a final concentration of DMSO of 0.2% to each well of the cell culture plate, followed by further culture at 37° C. for 3 days in an incubator containing 5% carbon dioxide.

[3] = target: purified recombinant human HER2 protein (Homo sapiens (Human), UniProt P04626); assay: Measurement of inhibitory effect on HER2-phosphorylating activity (in vitro); format: biochemical; conditions: ATP 6 μM, 25° C., 40 minutes
Chain of purified recombinant human HER2 protein (P04626 23-1255): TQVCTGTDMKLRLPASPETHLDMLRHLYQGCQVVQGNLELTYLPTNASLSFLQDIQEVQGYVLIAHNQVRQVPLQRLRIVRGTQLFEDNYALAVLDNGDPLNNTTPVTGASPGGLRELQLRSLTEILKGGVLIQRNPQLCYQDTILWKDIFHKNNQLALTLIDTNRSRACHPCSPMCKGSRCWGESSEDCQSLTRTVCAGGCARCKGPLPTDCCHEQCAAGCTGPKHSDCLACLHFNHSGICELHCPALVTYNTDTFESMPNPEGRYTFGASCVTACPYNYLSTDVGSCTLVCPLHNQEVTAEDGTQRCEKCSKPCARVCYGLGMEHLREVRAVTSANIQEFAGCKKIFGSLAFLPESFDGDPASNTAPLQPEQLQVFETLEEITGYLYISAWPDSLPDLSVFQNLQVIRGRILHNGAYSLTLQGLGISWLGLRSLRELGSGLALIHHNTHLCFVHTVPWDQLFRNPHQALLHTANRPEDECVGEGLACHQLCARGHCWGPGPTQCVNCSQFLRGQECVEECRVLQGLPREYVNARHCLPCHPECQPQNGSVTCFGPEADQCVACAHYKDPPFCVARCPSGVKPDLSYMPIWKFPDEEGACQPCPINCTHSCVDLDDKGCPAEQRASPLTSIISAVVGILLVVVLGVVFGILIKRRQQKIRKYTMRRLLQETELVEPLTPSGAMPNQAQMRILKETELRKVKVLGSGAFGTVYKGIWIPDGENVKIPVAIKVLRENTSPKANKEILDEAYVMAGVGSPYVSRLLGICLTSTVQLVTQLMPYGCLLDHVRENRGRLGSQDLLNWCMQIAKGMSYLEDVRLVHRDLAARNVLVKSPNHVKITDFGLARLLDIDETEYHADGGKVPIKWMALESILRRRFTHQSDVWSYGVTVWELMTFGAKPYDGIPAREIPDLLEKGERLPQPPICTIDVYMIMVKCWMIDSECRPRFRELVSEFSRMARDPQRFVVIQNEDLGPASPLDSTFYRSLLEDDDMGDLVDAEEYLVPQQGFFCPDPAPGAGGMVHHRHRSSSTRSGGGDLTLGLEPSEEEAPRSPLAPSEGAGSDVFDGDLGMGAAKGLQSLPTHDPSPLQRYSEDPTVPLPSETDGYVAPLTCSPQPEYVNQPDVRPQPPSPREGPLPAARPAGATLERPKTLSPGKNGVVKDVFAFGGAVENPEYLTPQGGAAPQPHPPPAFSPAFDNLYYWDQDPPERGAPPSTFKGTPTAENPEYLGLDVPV
Description: The purified recombinant human HER2 protein used in the test was purchased from Carna Biosciences, Inc.
For the inhibitory activity measurement of each compound, the synthesis example compound was first serially diluted with dimethyl sulfoxide (DMSO).

[4] = test system: HER2-overexpressing human breast cancer cell line SK-BR-3 cells; assay: Cytostatic activity against HER2-expressing cell line (SK-BR-3), CellTiter-Glo; format: cell-based; conditions: 3-day culture; read-out: SK-BR-3 cell growth inhibitory activity IC50 value
Method: (§2) Rate of growth inhibition (%)=(C−T)/(C)×100 T: Luminescence intensity of a well supplemented with the test compound C: Luminescence intensity of a well not supplemented with the test compound
as §1, with “breast” for “stomach”, “SK-BR-3” for “NCI-N87”, “McCoy's 5a” for “RPMI1640”, “The” for “Meanwhile, EGFR-overexpressing highly activated human epithelioid cancer cell line A431 cells were suspended in DMEM, high glucose medium (manufactured by Life Technologies Corp.) containing 10% fetal bovine serum. Subsequently, each”, “into” for “into a concentration of”, “times as high concentration as” for “times”

[5] = test system: EGFR-overexpressing highly activated human epithelioid cancer cell line A431 cells; assay: Cytostatic activity against EGFR-expressing cell line (A431), CellTiter-Glo; format: cell-based; conditions: 3-day culture; read-out: A431 cell growth inhibitory activity IC50 value
Description: as §1, §2

[6] = Capecitabine 359 mg/kg/day p.o. Days 1-14
[7] = Capecitabine 809 mg/kg/day p.o. Days 1-14

SMILES	BWC (%) Day 15 Mean [1, 6]	RTV Day 15 Mean ± SD [1, 6]	T/C (%) [1, 6]	BWC (%) Day 15 Mean [1, 7]	RTV Day 15 Mean ± SD [1, 7]	T/C (%) [1, 7]	RTV on Day 15 compared with the control group (in words) ([1]; Dunnett's test)	IC50 [2]	IC50 [3]	IC50 [4]	IC50 [5]
CCCCCOC(=O)Nc1nc(=O)n([C@@H]2O[C@H](C)[C@@H](O)[C@H]2O)cc1F [Capecitabine, capecitabine]	7.51%	1.26 ± 0.21	30.4%	−5.30%	1.12 ± 0.18	27.1%	significantly lower	–	–	–	–
C=CC(=O)N1CCC[C@@H](n2nc(C(=O)Nc3ccc(CC(=O)N(C)C)c(Cl)c3OC)c3c(N)ncnc32)C1 [compound 11]	–	–	–	–	–	–	–	4 nM	7.5 nM	12 nM	961 nM
C=CC(=O)N1CCC[C@@H](n2nc(C(=O)Nc3ccc(CC(=O)N(C)C)c(F)c3OC)c3c(N)ncnc32)C1 [compound 14]	–	–	–	–	–	–	–	4 nM	4.6 nM	10 nM	486 nM
C=CC(=O)N1CCC[C@@H](n2nc(C(=O)Nc3ccc(CC(=O)N(C)C)cc3OC(F)F)c3c(N)ncnc32)C1 [compound 15]	–	–	–	–	–	–	–	20 nM	8.6 nM	30 nM	2270 nM
C=CC(=O)N1CCC[C@@H](n2nc(C(=O)Nc3ccc(CC(=O)N(C)C)cc3OCF)c3c(N)ncnc32)C1 [compound 16]	–	–	–	–	–	–	–	27 nM	10 nM	40 nM	3460 nM
C=CC(=O)N1CCC[C@@H](n2nc(C(=O)Nc3ccc(CC(=O)N(C)C)cc3Br)c3c(N)ncnc32)C1 [compound 17]	–	–	–	–	–	–	–	5 nM	5.9 nM	13 nM	910 nM
C=CC(=O)N1CCC[C@@H](n2nc(C(=O)Nc3cc(Cl)c(CC(=O)N(C)C)cc3C)c3c(N)ncnc32)C1 [compound 19]	–	–	–	–	–	–	–	12 nM	10 nM	24 nM	1260 nM
C=CC(=O)N1CCC[C@@H](n2nc(C(=O)Nc3ccc(OC(=O)N(C)C)cc3C)c3c(N)ncnc32)C1 [compound 26]	–	–	–	–	–	–	–	5 nM	7 nM	8 nM	984 nM
C=CC(=O)N1CCC[C@@H](n2nc(C(=O)Nc3ccc(OC(=O)N(C)C)c(Cl)c3)c3c(N)ncnc32)C1 [compound 29]	–	–	–	–	–	–	–	46 nM	6.5 nM	44 nM	2220 nM

From patent US11696917B2, “Agent enhancing antitumor effect using pyrazolo[3,4-d]pyrimidine compound” (TAIHO PHARMACEUTICAL CO., LTD., priority 2017, dated 2023)
